In PubChem BioAssay (NCI):
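Cells were grown in 96-well plates and exposed to each compound for 48 hours at five concentrations; endpoints were interpolated linearly between bracketing concentrations, or set to the highest concentration if not reached. At the TGI there is no net growth.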

Key:
Assay in all cases: DTP human tumour cell line panel, 48 h
OVCAR-8 ovarian = test system: OVCAR-8 ovarian
MCF7 breast = test system: MCF7 breast
NCI-H226 lung = test system: NCI-H226 lung
MDA-N = test system: MDA-N
MALME-3M melanoma = test system: MALME-3M melanoma
CCRF-CEM leukemia = test system: CCRF-CEM leukemia
SR leukemia = test system: SR leukemia
IGROV1 ovarian = test system: IGROV1 ovarian
KM12 colon = test system: KM12 colon
NCI/ADR-RES ovarian = test system: NCI/ADR-RES ovarian

Row | SMILES | TGI (OVCAR-8 ovarian) [µM] | TGI (MCF7 breast) [µM] | TGI (NCI-H226 lung) [µM] | TGI (MDA-N) [µM] | TGI (MALME-3M melanoma) [µM] | TGI (CCRF-CEM leukemia) [µM] | TGI (SR leukemia) [µM] | TGI (IGROV1 ovarian) [µM] | TGI (KM12 colon) [µM] | TGI (NCI/ADR-RES ovarian) [µM]
1 | O=C(Nc1ccccc1C(=O)NCCCO)/C(=C/c1ccccc1O)NC(=O)c1ccccc1 | > 64.6 | > 100 | > 100 | > 100 | > 100 | > 100 | > 100 | > 100 | > 100 | 69.1
2 | COCc1nc2c(OC)cc(-c3nc4ccc(N5CCN(C)CC5)cc4[nH]3)c(OC)c2[nH]1 | > 100 | > 100 | > 100 | > 100 | 31.6 | > 100 | 54.6 | > 100 | > 100 | > 100
3 | CCNC(=O)C1CCCN1C(=O)C(CCCN=C(N)N)NC(=O)C(CC(C)C)NC(=O)C(Cc1c[nH]c2ccccc12)NC(=O)C(Cc1ccc(O)cc1)NC(=O)C(CO)NC(=O)C(Cc1c[nH]c2ccccc12)NC(=O)C(Cc1cnc[nH]1)NC(=O)C1CCC(=O)N1 (configuration not stated) | > 100 | > 100 | > 100 | > 100 | > 100 | > 100 | > 100 | > 100 | > 100 | > 100
4 | Nc1ccc(S(=O)(=O)Nc2nc3ccccc3nc2N2CCCCC2)cc1 | > 100 | > 100 | > 100 | > 100 | > 100 | > 100 | > 100 | > 100 | > 100 | > 100
5 | CC1(CNCc2ccccc2)CC(CCc2ccccc2)N(C(=O)c2ccc([N+](=O)[O-])cc2)C1Cc1ccc(O)cc1 (configuration not stated) | 32 | 19.2 | 24.1 | 27.1 | 33.6 | > 100 | > 100 | 31.2 | 36.2 | 36
6 | CC(C)(C)c1cc(/C=C(\C#N)C(=O)NCCO)cc(C(C)(C)C)c1O | > 100 | 93.5 | 40.7 | 48.7 | 61.9 | 46.3 | 49.4 | > 100 | 52.7 | 75.3
7 | CC1(C)C=C(S(=O)(=O)c2ccccc2)Oc2ccccc2O1 | > 100 | > 100 | > 100 | > 100 | 75.2 | > 100 | > 100 | > 100 | > 100 | > 100
8 | CCC(C)C(=O)OC1CC2(C)C(c3ccoc3)OC(=O)CC23OC2(C)OC34C(OC(=O)C(C)C)C3(O)C(OC(=O)C5(C)OC5C)C5(C)CC3(O)C(C)(C5CC(=O)OC)C14O2 (configuration not stated) | > 100 | 66.1 | > 100 | > 100 | > 100 | 74.1 | 95 | > 100 | > 100 | > 100
9 | Brc1ccc2c(-c3csc(-c4c[nH]c5ccc(Br)cc45)n3)c[nH]c2c1 | 24.1 | > 100 | 32.1 | 16.6 | 19.3 | > 29.2 | > 100 | 16.4 | 6.4 | 21.2
10 | CCOc1cc(-c2nc3ccccn3c2/N=C/c2cc(Br)ccc2O)ccc1O | 59.3 | 43.6 | > 100 | > 100 | > 100 | > 100 | > 100 | 49.1 | – | 93
11 | CCOn1c(C2(CC3CCN(C(=O)c4ccccc4)CC3)OCCO2)cc2ccccc21 | 29.2 | 30 | 20.4 | 30.1 | 33.2 | 31.7 | 22.5 | 31.7 | 30.9 | 33.9
12 | Cn1c([O-])nc(-n2cc[n+](C)c2)cc1=O | – | > 100 | > 100 | > 100 | > 100 | > 100 | > 100 | > 100 | > 100 | > 100
13 | COc1ccc2cc(NC(=O)N/N=C\c3ccc(Cl)cc3)ccc2c1 | > 100 | > 100 | > 100 | > 100 | > 100 | > 100 | > 100 | > 100 | > 100 | > 100
14 | COC(=O)c1ccc(C=Nc2ccc(S(N)(=O)=O)cc2)cc1 | > 100 | > 100 | > 100 | > 100 | > 100 | 83 | > 100 | – | > 100 | > 100
15 | Cc1nn(-c2cc(Cl)ccc2[N+](=O)[O-])c(C)c1Cl | > 100 | > 100 | > 100 | > 100 | > 100 | > 100 | > 100 | > 100 | > 100 | > 100
16 | O=C(CSc1n[nH]c(=O)[nH]c1=O)NNC(=O)c1cccc2nc3ccccc3nc12 | > 100 | > 100 | > 100 | 97.5 | 87.8 | > 100 | > 100 | > 100 | > 100 | > 100
